Test results as given in ChEMBL document CHEMBL6078673, “Synthesis and anti-tumor activity of menthylamine derivatives: Focusing on the potent inhibitory effect of compound W8 on glioma growth” (Bioorg Med Chem, 2025).
≈ marks a conversion by molar mass, not a printed value. Calls of active or inactive are those of the source. No cut-off for these calls is given here.

Legend:
[1] = Apparent permeability across apical to basolateral side in human Caco-2 cells at 2 uM incubated for 2 hrs by LC-MS/MS analysis; format: ADME, cell-based; conditions: for Papp A→B at 2 h, 2 µM: Caco-2; for Papp: caco-2, 2 h, 2 µM
[2] = Apparent permeability across basolateral to apical side in human Caco-2 cells at 2 uM incubated for 2 hrs by LC-MS/MS analysis; format: ADME, cell-based; conditions: for Papp B→A at 2 h, 2 µM: Caco-2; for Papp: caco-2, 2 h, 2 µM
[3] = Efflux ratio of apparent permeability from basolateral to apical side over apical to basolateral side in human Caco-2 cells at 2 uM incubated for 2 hr by LC-MS/MS analysis; format: ADME, cell-based; conditions: for efflux ratio at 2 h, 2 µM: Caco-2; for Ratio: caco-2, 2 h, 2 µM
U-87 MG [4] = experiment: Antiproliferative activity against human U87 cells assessed as inhibition of cell growth incubated for 24 hrs by CCK-8 assay; format: functional, cell-based, U-87MG ATCC
MCF7 = experiment: Antiproliferative activity against human MCF7 cells assessed as inhibition of cell growth incubated for 24 hrs by CCK-8 assay; format: functional, cell-based; conditions: MCF7, 24 h
HCT-116 = experiment: Antiproliferative activity against human HCT-116 cells assessed as inhibition of cell growth incubated for 24 hrs by CCK-8 assay; format: functional, cell-based; conditions: HCT-116, 24 h
KYSE-150 cell line = experiment: Antiproliferative activity against human KYSE-150 cell line assessed as inhibition of cell growth incubated for 24 hrs by CCK-8 assay; format: functional, cell-based; conditions: KYSE-150, 24 h
[5] = Kinetic solubility in PBS at pH 7.4 incubated under shaking condition for 24 hrs by LC-MS/MS analysis; format: physicochemical; conditions: read-out: Kinetic_solubility
[6] = Metabolic stability in liver microsomes (unknown origin) assessed as half life incubated for 60 mins by LC-MS/MS analysis; format: ADME, Microsome
[7] = Metabolic stability in liver microsomes (unknown origin) assessed as compound remaining incubated for 60 mins by LC-MS/MS analysis; format: ADME, Microsome; conditions: read-out: Stability
U-87 MG [8] = experiment: Induction of apoptosis in human U87 cells at 80 uM incubated for 24 hrs by Annexin V-FITC/PI staining based flow cytometry; format: functional
U-87 MG [9] = experiment: Induction of apoptosis in human U87 cells assessed as increase in number of apoptotic cells at 80 uM incubated for 24 hrs by Annexin V-FITC/PI staining based flow cytometry; format: functional, cell-based; conditions: U-87MG ATCC
U-87 MG [10] = experiment: Induction of cell cycle arrest in human U87 cells assessed as increase in number of cells at G1 phase at 80 uM incubated for 24 hrs by RNase/PI staining based flow cytometry; format: functional; conditions: U-87MG ATCC
U-87 MG [11] = experiment: Induction of cell cycle arrest in human U87 cells assessed as increase in number of cells at G2 phase at 80 uM incubated for 24 hrs by RNase/PI staining based flow cytometry; format: functional; conditions: U-87MG ATCC
U-87 MG [12] = experiment: Induction of cell cycle arrest in human U87 cells assessed as decrease in number of cells at S phase at 80 uM incubated for 24 hrs by RNase/PI staining based flow cytometry; format: functional; conditions: U-87MG ATCC
U-87 MG [13] = experiment: Inhibition of cell migration in human U87 cells at 80 uM incubated for 48 hrs by scratch assay; format: functional, cell-based; conditions: U-87MG ATCC
U-87 MG [14] = experiment: Induction of cell cycle arrest in human U87 cells assessed as decrease in number of cells at G1 phase at 80 uM incubated for 24 hrs by RNase/PI staining based flow cytometry; format: functional; conditions: U-87MG ATCC
U-87 MG [15] = experiment: Induction of cell cycle arrest in human U87 cells assessed as decrease in number of cells at G2 phase at 80 uM incubated for 24 hrs by RNase/PI staining based flow cytometry; format: functional; conditions: U-87MG ATCC
U-87 MG [16] = experiment: Induction of cell cycle arrest in human U87 cells assessed as increase in number of cells at S phase at 80 uM incubated for 24 hrs by RNase/PI staining based flow cytometry; format: functional; conditions: U-87MG ATCC

Row | SMILES | Papp A→B at 2 h, 2 µM [1] [×10⁻⁶ cm/s] | Papp B→A at 2 h, 2 µM [2] [×10⁻⁶ cm/s] | efflux ratio at 2 h, 2 µM [3] | IC50 (U-87 MG [4]) [mM] | IC50 (MCF7) [mM] | IC50 (HCT-116) [mM] | IC50 (KYSE-150 cell line) [mM] | solubility kinetic at 24 h [5] [µM] | half-life [6] [min] | remaining at 1 h [7] [%] | Activity (U-87 MG [8]; U-87MG ATCC) | Activity (U-87 MG [9]) | inhibition (U-87 MG [13]) | Activity (U-87 MG [14]) | Activity (U-87 MG [15]) | Activity (U-87 MG [16]) | also measured
1 | C[C@H]1O[C@@H](O[C@H]2[C@@H](O)C[C@H](O[C@H]3[C@@H](O)C[C@H](O[C@H]4CC[C@@]5(C)[C@H](CC[C@@H]6[C@@H]5C[C@@H](O)[C@]5(C)[C@@H](C7=CC(=O)OC7)CC[C@]65O)C4)O[C@@H]3C)O[C@@H]2C)C[C@H](O)[C@@H]1O [DIGOXIN] | 0.15 | 18.6 | 127 | – | – | – | – | – | – | – | – | – | – | – | – | – | –
2 | COCCc1ccc(OCC(O)CNC(C)C)cc1 (centres undefined) [METOPROLOL] | 25.1 | – | – | – | – | – | – | – | – | – | – | – | – | – | – | – | –
3 | CC(C)[C@H]1CC[C@@H](C)C[C@@H]1N | – | – | – | 1.74 | > 6.45 | > 0.318 | > 6.45 | 150 (≈ 23.3 µg/mL) | > 145 | 75.4 | Active | Active; Significantly Increased Activity Observed | Active | – | – | – | Papp [1]: 40.16 10^-6 cm/s; Papp [2]: 23.22 10^-6 cm/s; Ratio [3]: 0.5; Activity (U-87 MG [10]): Active; Activity (U-87 MG [11]): Active; Activity (U-87 MG [12]): Active
4 | CC(C)[C@H]1CC[C@H](C)C[C@@H]1O [RACEMENTHOL] | – | – | – | 0.679 | 3.68 | 1.14 | 3.65 | – | – | – | – | inactive | Active | inactive | inactive | inactive | –
5 | CC(C)[C@H]1CC[C@H](C)C[C@H]1N1C(=O)c2ccccc2C1=O | 25.7 | 12.6 | 0.52 | 0.0653 | 1.49 | 0.0572 | > 0.972 | 0.03 (≈ 0.00856 µg/mL) | > 145 | 80.4 | Active | Active; Significantly Increased Activity Observed | Active | – | – | – | Activity (U-87 MG [10]): Active; Activity (U-87 MG [11]): Active; Activity (U-87 MG [12]): Active
6 | CC(C)[C@@H]1CC[C@@H](C)C[C@@H]1OC(=O)c1ccc([N+](=O)[O-])cc1 | 24.4 | 12.1 | 0.51 | 0.109 | 2.67 | 0.787 | 3.51 | 0.031 (≈ 0.00947 µg/mL) | 25 | 33.3 | Active | Active; Significantly Increased Activity Observed | Active | inactive | inactive | inactive | –
7 | C[C@]12CC[C@H]3[C@@H](CCC4=CC(=O)CC[C@@]43C)[C@@H]1CC[C@@H]2O [TESTOSTERONE] | – | – | – | – | – | – | – | – | – | 91 | – | – | – | – | – | – | –
8 | CC(C)[C@@H]1CC[C@@H](C)C[C@H]1O [LEVOMENTHOL] | – | – | – | 0.198 | 1.25 | 0.771 | 0.784 | – | – | – | – | inactive | Active | inactive | inactive | inactive | –
9 | CC(C)[C@@H]1CC[C@@H](C)C[C@H]1OC(=O)c1ccc([N+](=O)[O-])cc1 | 24 | 11.2 | 0.48 | 0.0927 | 0.907 | 0.649 | > 3.13 | 0.61 (≈ 0.186 µg/mL) | 25.2 | 32.6 | Active | Active; Significantly Increased Activity Observed | Active | inactive | inactive | inactive | –
10 | CC(C)[C@H]1CC[C@H](C)C[C@@H]1N | 46 | 23.5 | 0.53 | 3.21 | 6.45 | 6.45 | 6.45 | 146 (≈ 22.6 µg/mL) | > 145 | 79.4 | – | Active; Significantly Increased Activity Observed | Active | inactive | inactive | inactive | Activity (U-87 MG [8]): 90%
11 | O=C(O)Cc1ccccc1Nc1c(Cl)cccc1Cl [DICLOFENAC] | – | – | – | – | – | – | – | – | 5.32 | 97.8 | – | – | – | – | – | – | –
12 | CC(C)[C@H]1CC[C@H](C)C[C@H]1N | – | – | – | 0.317 | > 1.26 | 0.63 | > 3.28 | 0.625 (≈ 0.0971 µg/mL) | > 145 | 81.8 | Active | Active; Significantly Increased Activity Observed | Active | – | – | – | Papp [1]: 23.47 10^-6 cm/s; Papp [2]: 22.23 10^-6 cm/s; Ratio [3]: 0.55; Activity (U-87 MG [10]): Active; Activity (U-87 MG [11]): Active; Activity (U-87 MG [12]): Active
13 | CC(C)(C)NCC(O)COc1cccc2c1CC(O)C(O)C2 (centres undefined) [NADOLOL] | 0.04 | – | – | – | – | – | – | – | – | – | – | – | – | – | – | – | –
14 | CC(C)[C@H]1CC[C@@H](C)C[C@H]1N | 41.8 | 24.7 | 0.59 | 0.224 | 3.51 | 0.848 | 4.24 | 147 (≈ 22.8 µg/mL) | > 145 | 79.4 | – | Active; Significantly Increased Activity Observed | Active | Active | Active | Active | Activity (U-87 MG [8]): 90%
15 | Cn1nnc2c(C(N)=O)ncn2c1=O [TEMOZOLOMIDE] | – | – | – | 1.5 | – | – | – | – | – | – | – | – | – | – | – | – | –
